For orientation: MIC means the lowest concentration found to suppress growth. By MBC is commonly meant the lowest tested concentration that kills the bacteria rather than only halting them.

The results in this text go back to patent publication US20260258006A1, “NEW ANTIBIOTIC COMPOUNDS” (UNIVERSITÉ CÔTE D'AZUR, priority 2022, published 2026).

Holding throughout (type): cell-based
The subject of data set [1] is Staphylococcus aureus strain RN4220. Description: Bacterial growth inhibition screen at 50 μM. The conditions noted are these: RN4220, 50 μM, 20 h, 37° C. How it is done:
(§1) The inhibition of the growth of two Staphylococcus aureus strains ([…], modified laboratory strain, non-pathogenic; and S25, pathogenic strain obtained from patients) by the presence of our compounds were used to evaluate their efficacy as bacteriostatic and/or bactericide compounds.
(§2) All compounds presented were dissolved in DMSO (10 mM stock solution) and tested initially at 50 μM concentration. The bacterial growth was measured after 5 h and 20 h incubation at 37° C. with the compounds. As positive control, the antibiotics ampicillin and kanamycin were used.

Data set [2] has as its system Staphylococcus aureus strain S25. Kind of data set: Bacterial growth inhibition screen at 50 μM. The conditions noted are these: S25, 50 μM, 20 h, 37° C. The method, then:
as §1, §2

The subject of data set [3] is Staphylococcus aureus strain RN4220. Description: Minimal Inhibitory Concentration (MIC) determination. To be noted: read-out: MIC RN4220. The method, then:
(§3) MIC is defined as the smallest concentration of a compound that inhibits the growth of bacteria. For that, 6 doses were tested (1, 5, 12.5, 25, 50, 100 μM) for both strains incubated at 37° C., for 20 h.
(§4) Minimum inhibitory concentration (MIC, incubation for 20 h) and maximum bactericide concentration (MBC, incubation for 24 h) for S. aureus strains RN4220 and S25.
(§5) 2 Staphylococcus aureus Strains: • RN4220 (non-pathogenic) • S25 (pathogenic) • MIC: minimal inhibitory concentration • MBC: minimal bactericide concentration

For data set [4], the system named is Staphylococcus aureus strain S25. The description is as above. To be noted: Bacteriostatic, 20 h, 37° C., pathogenic strain. The method, then:
as §3, §4, §5

Data set [5] relates to Staphylococcus aureus strain RN4220. Description: Minimal Bactericide Concentration (MBC) determination. To be noted: RN4220, 24 h, read-out: MBC RN4220. How it is done:
as §3, §4, §5

Data set [6] deals with Staphylococcus aureus strain S25. The data set is described as above. To be noted: 24 h in fresh media, pathogenic strain. How it is done: as §3, §4, §5
The test system of data set [7] is human embryonic kidney 293 cells (HEK293). Kind of data set: Cytotoxicity by extracellular LDH release (CyQUANT LDH Cytotoxicity Assay Kit). To be noted: HEK293, 24 h, at their active doses (range of MIC and MBC), N=3. How it is done: • HEK293: 24 h in the presence of the bactericide compounds or DMSO • Method of evaluation: CyQUANT™ LDH Cytotoxicity Assay Kit.
Cytotoxicity through extracellular lactate dehydrogenase (LDH) quantification upon incubation of the compounds with HEK 293T cells at the same range of concentration as MIC and MBC. LDH: positive control, DMEM: negative control. N=3.
Preliminary safety of these compounds towards host cells was evaluated by using a extracellular lactate dehydrogenase (LDH) release model with human embryonic kidney 293 cells (HEK293).
(Release of lactate dehydrogenase indicates damage to the cell membrane.)

[8] abbreviates: RN4220, Bacteriostatic, 20 h, 37° C., non-pathogenic strain.

In brackets after ≈: the same amount, converted by molar mass. Where two headings read alike, the source gives them in different places.

Take `N=C(Nc1nc2c(F)cc(F)cc2s1)C(Cl)(Cl)Cl` [MTF573, 2,2,2-trichloro-N-(4,6-difluorobenzo[d]thiazol-2-yl)acetimidamide]: the “bacterial growth / growth inhibition (in words)” value in data set [1] and in data set [2] was “no growth” throughout. Besides, the figures for the MIC in data set [3] (setting [8]) and in data set [4] were 40 µM (≈ 13.2 µg/mL) and 50 µM (≈ 16.5 µg/mL), respectively. For the same compound, the MBC in data set [5] and in data set [6] was 50 µM (≈ 16.5 µg/mL) each time. In addition, the “cytotoxicity (extracellular LDH level versus DMSO control)” value in data set [7] is listed as “no cytotoxicity activity”.
On to `N=C(Nc1nc2c(Br)cccc2s1)C(Br)Br` [MTF643, 2,2-dibromo-N-(4-bromobenzo[d]thiazol-2-yl)acetimidamide], for which the minimum inhibitory concentration (MIC) in data set [3] (setting [8]) and in data set [4] was 25 µM (≈ 10.7 µg/mL) throughout. In addition, the MBC amounted to 25 µM (≈ 10.7 µg/mL) in data set [5] and 50 µM (≈ 21.4 µg/mL) in data set [6]. In addition, in data set [7], the “cytotoxicity (extracellular LDH level versus DMSO control)” value is on record as “no cytotoxicity activity”.
As for `N=C(Nc1nc2c(Cl)cc(Cl)cc2s1)C(Cl)(Cl)Cl` [MTF642, 2,2,2-trichloro-N-(4,6-dichlorobenzo[d]thiazol-2-yl)acetimidamide], the minimal inhibitory concentration (MIC) was determined as 12.5 µM (≈ 4.54 µg/mL) in data set [3] (setting [8]) and 50 µM (≈ 18.2 µg/mL) in data set [4]. The results for the MBC in data set [5] and in data set [6] were 12.5 µM (≈ 4.54 µg/mL) and 50 µM (≈ 18.2 µg/mL), respectively. Moreover, the “cytotoxicity (extracellular LDH level versus DMSO control)” value in data set [7] is “no cytotoxicity activity”.
Turning to `N=C(Nc1nc2c(Cl)cccc2s1)C(Cl)(Cl)Cl` [MTF235, 2,2,2-trichloro-N-(4-chlorobenzo[d]thiazol-2-yl)acetimidamide], the “bacterial growth / growth inhibition (in words)” value in data set [1] and in data set [2] was “no growth” each time. Besides, the MIC in data set [3] (setting [8]) and in data set [4] was 25 µM (≈ 8.23 µg/mL) throughout. Moreover, the MBC in data set [5] and in data set [6] was 50 µM (≈ 16.5 µg/mL) in each case. Moreover, the “cytotoxicity (extracellular LDH level versus DMSO control)” value in data set [7] is “no cytotoxicity activity”.
Take `Cc1cccc2sc(NC(=N)C(Cl)(Cl)Cl)nc12` [MTF572, 2,2,2-trichloro-N-(4-methylbenzo[d]thiazol-2-yl)acetimidamide]: the “bacterial growth / growth inhibition (in words)” value in data set [1] and in data set [2] was “no growth” throughout. The MIC in data set [3] (RN4220, 20 h) came to 40 µM (≈ 12.3 µg/mL); in data set [4] it was 40 µM (≈ 12.3 µg/mL). The MBC in data set [5] worked out at 100 µM (≈ 30.9 µg/mL).
Consider `O=C(Nc1nc2c(Cl)cc(Cl)cc2s1)C(Cl)(Cl)Cl` [MTF640, N-(4,6-dichlorobenzo[d]thiazol-2-yl)trichloroacetamide], for which the values for the MIC in data set [3] (setting [8]) and in data set [4] were 12.5 µM (≈ 4.56 µg/mL) and 25 µM (≈ 9.11 µg/mL), respectively. In addition, the MBC in data set [5] and in data set [6] was 50 µM (≈ 18.2 µg/mL) in each case. The “cytotoxicity (extracellular LDH level versus DMSO control)” value in data set [7] is given as “no cytotoxicity activity”.
